Here are results for one compound from patent US8232253B2, “Treatment of lung cancer” (Ramot at Tel-Aviv University Ltd., priority 2006, dated 2012).

The test system of assay [1] is human lung cancer cell lines A549, H23, HTB54, H-1299, HTB-58 (SK-MES-1). The experiment in a line: Growth inhibition of human lung cancer cell lines by direct cell counting. The assay is classed as cell-based. The conditions noted are these: range over A549, H23, HTB54, H-1299, HTB-58 (SK-MES-1), read-out: IC50 of growth inhibition, depending on the cell line. As for the experimental part:
FTS was provided by Concordia Pharmaceuticals, Inc. (Ft. Lauderdale, Fla.). All cell lines were obtained from American Type Culture Collection (“ATCC”) (Manassas, Va.). A549 cells, non-small-cell lung carcinoma (CCL, ATCC) cells, were cultured in Kaighn's modification of Ham's F-12 medium containing 1.5 g/l sodium bicarbonate, 10% fetal calf serum (FCS), 100 U/ml penicillin, and 100 μg/ml streptomycin. HTB54 lung carcinoma cells were cultured in McCoy's 5A medium with 10% FCS, 100 U/ml penicillin, and 10 μg/ml streptomycin. HTB-58 (SK-MES-1, ATCC), a human lung squamous cell carcinoma cell line, was cultured in Eagle's minimum essential medium with 2 mM L-glutamine and Earle's BSS, 1.5 g/l sodium bicarbonate, 0.1 mM non-essential amino acids, 1 mM sodium pyruvate, 10% FCS, 100 U/ml penicillin, and 100 μg/ml streptomycin. […] Cells were treated with the indicated concentrations of FTS (Concordia Pharmaceuticals, Sunrise Fla.) or with 0.1% Me2SO4 (DMSO) (vehicle) 24 h after plating and were counted 5 days later. Dead cells were counted after addition of Hoechst 33258 dye (Sigma-Aldrich, St. Louis, Mo.); 1 μg/ml) to vehicle-treated control cultures or to cultures treated for 24 or 48 h with 75 μM FTS. Fluorescence images were collected 5 min after the dye was added. […]

Assay [2] has as its system A549 cells. The experiment in a line: Immunofluorescence of cytoskeleton (F-actin, vinculin) and cell morphology. The assay is classed as cell-based, human. The following applies: 75 μM FTS, 48 h. As for the experimental part:
A549 cells were plated on glass cover slips (2×10^4 cells/well in 6-well plates), incubated for 24 h in medium containing 5% FCS, and then incubated for 48 h with or without 75 μM FTS. The cells were fixed and permeabilized at room temperature by successive incubations with 3.7% formaldehyde (20 min) and 0.2% Triton X-100 in PBS (5 min), then washed for 5 min with UB buffer (150 mM NaCl, 10 mM Tris pH 7.6, and 0.2% sodium azide in PBS) and blocked with 2% BSA in UB (UBB, 5 min). The fixed cells were incubated successively with naïve goat IgG for 30 min (200 μg/ml, Jackson ImmunoResearch Laboratories, West Grove, Pa.), anti-vinculin Ab for 1 h (1:400, Sigma-Aldrich), goat anti-mouse Cy2-conjugated Ab for 1 h (1:200, Jackson), and rhodamine-labeled phalloidin for 1 h (1:1000, Sigma-Aldrich). Between each of the above steps the cells were washed for 30 min with UBB. Lastly, the cover slips were washed with UB, dried, and mounted onto the slides with Muviol. F-actin (red) and vinculin (green) were visualized with a Zeiss LSM 510 confocal microscope fitted with non-leaking green and red fluorescence filters. Co-localization was assessed using the co-localization function of the LSM 510 software. […]

Assay [3] has as its system A549 cells. Kind of assay: Drug combination experiments, live cell counting. The assay is classed as cell-based, human. The following applies: FTS alone 40 μM. The method, then:
In drug combination experiments, cells were grown for 2 days in the absence or in the presence of 40 μM FTS and were then treated for 4 h with gemcitabine (100 or 200 nM), cisplatin (50 or 100 nM), doxorubicin (50 or 100 nM), or paclitaxel (2.5 or 5 nM). Live cells were counted after a further 3 days of incubation with or without FTS. Experiments were performed twice in quadruplicate. To determine whether A549 cells were resistant to apoptosis, an experiment to examine the survival of human lung cancer A549 cells after exposure to a chemotherapeutic agent in the presence of FTS was performed. Thus, to determine whether treatment with FTS can increase the sensitivity of A549 cells to cytotoxic drugs, A549 cells were incubated for 48 h with DMSO (control) or with 40 μM FTS, then for 4 h with gemcitabine, cisplatin, doxorubicin, or paclitaxel at the indicated concentrations. The cells were then washed and incubated for a further 72 h with DMSO or with 40 μM FTS. Live cells were collected and counted. The numbers of cells in the drug-treated cultures, expressed as percentages of the numbers in the vehicle-treated control, are shown in FIGS. 13A-13D. Values are means±SD. *P<0.05, **P<0.01, compared to vehicle-treated control.

As usually defined, the IC50 is the midpoint of a concentration-inhibition curve. With `CC(C)=CCC/C(C)=C/CC/C(C)=C/CSc1ccccc1C(=O)O` [FTS, S-farnesylthiosalicylic acid], the IC50 in assay [1] lay within 30 to 75 µM. Moreover, the “cells that had undergone changes in cell morphology” value in the assay on A549 cells [2] is “more than 80%”. The “reduction in cell numbers (mean±SD)” value with A549 cells [3] (cisplatin experiment (FIG. 13C)) was determined as 33±9.5%; in the assay with A549 cells [3] (gemcitabine experiment (FIG. 13A)), 25±6.3%.
